The source of these data is patent publication US10759797B2, “Pharmaceutically acceptable salt of EGFR inhibitor, crystal form thereof, preparation method therefor and application thereof” (Wuxi Shuangliang Biotechnology Co., Ltd., priority 2017, dated 2020).

Structures can show the parent of a compound that is named as a salt.

What all share (format): physicochemical
Data set [1] is described as follows: One month accelerated stability study at 40° C./75% RH (shape, purity, XRPD). Conditions: for Appearance, 1 month / Purity (%), 1 month / XRPD pattern (0 month versus 1 month): after 1 month at 40° C./75% RH; for Appearance, 0 month / Purity (%), 0 month: start of study (0 month). As for the experimental part: The six pharmaceutically acceptable salts of EGFR inhibitor in Examples 1 to 6 were placed in a condition of 40° C./75% RH, and a one month accelerated stability study was carried out. Samples were taken at the end of 0 and 1 month respectively, and emphasis was placed upon the shape, purity and crystal form stability (XRPD pattern) of the samples.
Stable refers to no occurrence of degradation and no detection of transformation to other crystal forms by analytical means such as chromatography and XRPD.

A short description of data set [2]: Hygroscopicity study of crystal forms (Chinese Pharmacopoeia 2015, part 4, appendix 9103). To be noted: for Hygroscopicity as compared with that of the EGFR inhibitor present in a free base form: 25° C./RH 80%; for Weight gain over 6 hours (%) / Weight gain over 24 hours (%) / Hygroscopicity: 25° C.±1° C., relative humidity 80%±2%; for Hygroscopicity: Pharmacopoeia class. The procedure: Hygroscopicity comparison study was carried out for various pharmaceutically acceptable salts of EGFR inhibitor present in the form of crystal in Examples 1 to 3 and 5 to 6, the amorphous EGFR inhibitor phosphate salt in Example 4, and the EGFR inhibitor present in a free base form. Tests were conducted according to the method in the Pharmacopoeia of the People's Republic of China, 2015 edition, part 4, appendix 9103 (temperature: 25° C.±1° C., relative humidity: 80%±2%), and the results were as shown in Table 6.
With regard to the description of hygroscopic properties and definition of hygroscopic weight gain, refer to the Pharmacopoeia of the People's Republic of China, 2015 edition, part 4, appendix 9103, experimental guideline of drug hygroscopicity, herein descried by way of example as follows.
Deliquescence: absorb enough water to form a liquid.
Very hygroscopic: hygroscopic weight gain […] 15%.
Hygroscopic: hygroscopic weight gain less than 15% but not less than 2%.
Non- or almost non-hygroscopic: hygroscopic weight gain less than 0.2%.

Data set [3] is described as follows: Solubility study in artificial gastric fluid (saturated solutions, HPLC linear equation; Pharmacopoeia and BCS classification). Conditions: for Pharmacopoeia of the People's Republic of China Solubility level / Solubility in artificial gastric fluid, 1 h / Solubility in artificial gastric fluid, 4 h / Solubility in artificial gastric fluid, 24 h / BCS level (Do): artificial gastric fluid; for Solubility in artificial gastric fluid compared with water: artificial gastric fluid versus water; for Solubility in artificial gastric fluid, 1 h / Solubility in artificial gastric fluid, 4 h / Solubility in artificial gastric fluid, 24 h: saturated solution; for Solubility in artificial gastric fluid, 1 h: standing 1 hour; for Solubility in artificial gastric fluid, 4 h: standing 4 hours; for Solubility in artificial gastric fluid, 24 h: standing 24 hours; for BCS level (Do): Do=(Mo/Vo)/Cs, Mo 80 mg, Vo about 250 ml, Do≤1 solubility high, Do>1 low; for Degradation in the solubility study: water and artificial gastric fluid, up to 24 hours. An excerpt: (§1) Various pharmaceutically acceptable salts of EGFR inhibitor present in form of crystal in Examples 1 to 3 and 5 to 6 were classified with reference to the relevant requirements of the Pharmacopoeia of the People's Republic of China and the Bio-pharmaceutics Classification System (BCS).
(§2) (a) Relevant Requirements of Solubility in the Pharmacopoeia of the People's Republic of China, 2015 Edition, General Notices:
(§3) (b) Relevant Requirements of Solubility in BCS: Do=(Mo/Vo)/Cs;
(§4) wherein Do: dose index; Mo: highest single dose of the drug (with reference to the relevant dose of osimertinib, tentatively set to 80 mg); Vo: the volume of body fluid required for dissolving the drug (about 250 ml); Cs: saturated solubility of the drug;
(§5) if Do≤1, solubility is high; and if Do>1, solubility is low.
(§6) Using an EGFR inhibitor free base as a control, linear regression was carried out by plotting peak area versus concentration, and the corresponding linear equation was obtained in the range of 0.025 to 1.5 mg/ml: A=19775.0411c+2.4256, r=1.0000.
Artificial gastric fluid was used as solvent. An appropriate amount of the EGFR inhibitor mesylate salt (crystal form A), p-toluenesulfonate salt (crystal form B), phosphate salt (crystal form C), phosphate salt (amorphous), hydrochloride salt (crystal form C), and citrate salt (crystal form E) prepared in Examples 1 to 6 was weighed, and prepared into saturated solutions. Samples were taken after standing for 1 hour, 4 hours, and 24 hours, respectively, and the concentration of each sample in saturation state was calculated according to the linear equation.

Data set [4] is described as follows: Solubility study in water (saturated solutions, HPLC linear equation; Pharmacopoeia and BCS classification). Conditions: in water and artificial gastric fluid.
Assay in data set [5]: as above
To be noted: for BCS level (Do): Do=(Mo/Vo)/Cs, Mo 80 mg, Vo about 250 ml, Do≤1 solubility high, Do>1 low; for Solubility in water, 1 h / Solubility in water, 4 h / Solubility in water, 24 h: saturated solution; for Solubility in water, 1 h: standing 1 hour; for Solubility in water, 4 h: standing 4 hours; for Solubility in water, 24 h: standing 24 hours.
From the text: as §1, §2, §3, §4, §5, §6
Water was used as solvent. An appropriate amount of the EGFR inhibitor mesylate salt, p-toluenesulfonate salt, phosphate salt, hydrochloride salt and citrate salt prepared in Examples 1 to 3 and 5 to 6 was weighed, and prepared into saturated solutions. Samples were taken after standing for 1 hour, 4 hours, and 24 hours, respectively, and the concentration of each sample in saturation state was calculated according to the linear equation.

Setting [6] is: listed as citrate salt (crystal form E).

In the case of `C=CC(=O)Nc1cc(Nc2nccc(-c3cn(C)c4cccnc34)n2)c(OC)cc1N(C)CCN(C)C` [phosphate salt (amorphous)], in data set [1], the “Appearance, 1 month” value is given as “light grey solid”; the “Purity (%), 1 month” value was found to be 98.7%; the “XRPD pattern (0 month versus 1 month)” value was “consistent”; the “Appearance, 0 month” value is listed as “light grey solid”. In addition, the “Purity (%), 0 month” value in data set [1] turned out to be 98.9%. The “Hygroscopicity as compared with that of the EGFR inhibitor present in a free base form” value in data set [2] (listed as amorphous phosphate salt) was “lower hygroscopicity”. In data set [2], the “Weight gain over 6 hours (%)” value was determined as 1.2%, the “Weight gain over 24 hours (%)” value is 1.5% and the Hygroscopicity entry is given as “slightly hygroscopic”. Also, in data set [3], the “Pharmacopoeia of the People's Republic of China Solubility level” value (from here on “Pharmacopoeia … of China Solubility level”) is given as “freely soluble”; the “Solubility in artificial gastric fluid compared with water” value was “higher solubility in artificial gastric fluid than in water”; the “Solubility in artificial gastric fluid, 1 h” value came to 123.56 mg/mL; the “Solubility in artificial gastric fluid, 4 h” value is 136.76 mg/mL. Further, in data set [3], the “Solubility in artificial gastric fluid, 24 h” value stood at 138.91 mg/mL; the “BCS level (Do)” value is listed as 0.0023 < 1; the “Degradation in the solubility study” value is recorded as “no significant degradation”. In addition, in data set [4], the “Solubility with reference to Pharmacopoeia solubility classification” value is “high”. Also, in data set [5], the “Pharmacopoeia … of China Solubility level” value is “freely soluble”; the “BCS level (Do)” value is 0.0034 < 1; the “Solubility in water, 1 h” value came out at 88.32 mg/mL; the “Solubility in water, 4 h” value came out at 92.14 mg/mL. Also, the “Solubility in water, 24 h” value in data set [5] worked out at 94.56 mg/mL.

As for `C=CC(=O)Nc1cc(Nc2nccc(-c3cn(C)c4cccnc34)n2)c(OC)cc1N(C)CCN(C)C` [citrate salt], in data set [1], the “XRPD pattern (0 month versus 1 month)” value is given as “consistent”. For the same compound, in data set [1] (setting [6]), the “Appearance, 1 month” value was “light grey solid”; the “Purity (%), 1 month” value was 99.1%; the “Appearance, 0 month” value is “light grey solid”; the “Purity (%), 0 month” value is recorded as 98.9%. Further, the “Hygroscopicity as compared with that of the EGFR inhibitor present in a free base form” value in data set [2] (listed as citrate salt crystal form E) is “comparable hygroscopicity”. Further, in data set [2], the “Weight gain over 6 hours (%)” value is listed as 2.23%, the “Weight gain over 24 hours (%)” value was found to be 2.48% and the Hygroscopicity result is recorded as “hygroscopic”. In addition, in data set [3], the “Pharmacopoeia … of China Solubility level” value was “freely soluble”; the “Solubility in artificial gastric fluid compared with water” value is “higher solubility in artificial gastric fluid than in water”; the “Solubility in artificial gastric fluid, 1 h” value stood at 168.51 mg/mL; the “Solubility in artificial gastric fluid, 4 h” value amounted to 196.47 mg/mL. In data set [3], the “Solubility in artificial gastric fluid, 24 h” value was 176.88 mg/mL; the “BCS level (Do)” value is 0.0018 < 1; the “Degradation in the solubility study” value is reported as “no significant degradation”. For the same compound, the “Solubility with reference to Pharmacopoeia solubility classification” value in data set [4] is given as “high”. Further, in data set [5], the “Pharmacopoeia … of China Solubility level” value was “freely soluble”; the “BCS level (Do)” value is listed as 0.0024 < 1; the “Solubility in water, 1 h” value is 143.59 mg/mL; the “Solubility in water, 4 h” value is 137.34 mg/mL. The “Solubility in water, 24 h” value in data set [5] was 133.57 mg/mL.
